The results in this text go back to ChEMBL document CHEMBL1201862, “PubChem BioAssay data set” (2004).

Assay in all cases: NCI-60 cell line screen, 48 h
Assay [1] concerns 786-0.
In assay [2] the test system is CCRF-CEM.
Assay [3] has as its system COLO 205.
Assay [4] has as its system EKVX.
Assay [5] concerns HL-60.
The test system of assay [6] is K562.
Assay [7] has as its system Malme-3M.
The subject of assay [8] is NCI-H226.
The test system of assay [9] is NCI-H23.
Assay [10] concerns NCI-H460.
Assay [11] concerns SK-OV-3.
Assay [12] has as its system SNB-19.
Assay [13] deals with SNB-75.
The test system of assay [14] is TK-10.
The test system of assay [15] is UO-31.

SMILES strings stand for the structures.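 96-well plates; 48 h exposure; 5 concentrations. Endpoints by linear interpolation between flanking doses. Not reached: highest tested concentration assigned. The concentration for 50% growth inhibition is given as GI50.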 Activity calls are given as the source filed them. Cut-off read from the data, not from the text of the source: active = GI50 up to about 1.1 µM and inactive = higher. Bounds are passed on as bounds.

With `C=C(C=O)CCCC(C)[C@@H]1CCC23CC12CCC1[C@@]2(C)CCC(OC(C)=O)C(C)(C)C2CC(OC2OC(COC(C)=O)C(O)C(O)C2O)[C@]13C` (stereo partly drawn), the GI50 in assay [1] was 6.87 µM (inactive); in assay [2] it was 1.03 µM (active); in [3] it was 7.82 µM (inactive); in [4], 7.33 µM (inactive); in assay [5] it was 0.643 µM (active); in assay [6] it was 1.44 µM (inactive). The GI50 in [7] is 2 µM (inactive); in [8] it was 6.43 µM (inactive); in [9], 7.82 µM (inactive); in assay [10], 7.69 µM (inactive); in [11] it was 6.15 µM (inactive); in [12], 7.1 µM (inactive). In addition, the GI50 in [13] is 5.68 µM (inactive); in [14], 6.58 µM (inactive); in assay [15], 5.42 µM (inactive).

As to `NCCCNC(=O)c1csc(NC(=O)c2csc(NC(=O)CCCN)n2)n1`, the GI50 in assay [1], in assay [2], in [3], in assay [4], in assay [5] and in assay [6] was > 100 µM (inactive) in each case. Further, the GI50 in assay [7], in [8], in [9], in assay [10], in assay [11] and in [13] was > 100 µM (inactive) throughout. Further, the GI50 in [14] and in assay [15] was > 100 µM (inactive) throughout.

As to `Cc1ccc(S(=O)(=O)OCCn2cnc3nc(NC(=O)c4ccccc4)[nH]c(=O)c32)cc1`, the GI50 in assay [1], in [2], in assay [3], in [4], in assay [5] and in [6] was > 100 µM (inactive) each time. For the same molecule, the GI50 in [7], in assay [8], in [10], in assay [11], in assay [12] and in assay [13] was > 100 µM (inactive) in each case. Further, the GI50 in [14] and in assay [15] was > 100 µM (inactive) throughout.

With `COc1cc(/C=C2\[C@H]3c4c(c(OC)c(C)c(OC)c4OC)CC(C(=O)N2Cc2ccccc2)N3C)c(OC)c(C)c1OC`, the GI50 in assay [1] was 18.1 µM (inactive); in assay [2], 19.1 µM (inactive); in assay [3], 17.3 µM (inactive); in [4], 26.1 µM (inactive); in assay [5], 15.7 µM (inactive); in assay [6], 27.6 µM (inactive). The GI50 in [7] was 21.9 µM (inactive); in assay [8], 10.4 µM (inactive); in [9], 34.3 µM (inactive); in assay [10], 16.6 µM (inactive); in assay [11] it was 29.5 µM (inactive); in [12] it was 27.2 µM (inactive). Moreover, the results for the GI50 in assay [13], in [14] and in assay [15] were 25.4 µM (inactive), 33.5 µM (inactive) and 19.3 µM (inactive), respectively.

For `O=C(O)CCCNS(=O)(=O)c1ccccc1`, the GI50 in assay [1], in assay [2], in assay [3], in [4], in assay [5] and in [6] was > 100 µM (inactive) throughout. In addition, the GI50 in assay [7], in [8], in [9], in assay [10], in assay [11] and in assay [12] was > 100 µM (inactive) each time. Further, the GI50 in [13], in assay [14] and in assay [15] was > 100 µM (inactive) in each case.

On to `CCOC(=O)C[C@@H](C)[C@]1(C(=O)OC)CCCC1=O`, for which the GI50 in assay [1] is > 70.6 µM (inactive); in assay [2] it was 44.6 µM (inactive); in assay [3], > 51.8 µM (inactive); in assay [4], > 100 µM (inactive); in assay [5] it was > 100 µM (inactive); in [6] it was > 100 µM (inactive). For the same molecule, the GI50 in assay [7] is > 100 µM (inactive); in [8] it was > 100 µM (inactive); in assay [9], > 71.9 µM (inactive); in assay [10], > 67 µM (inactive); in assay [11] it was > 100 µM (inactive); in assay [12], > 100 µM (inactive). Further, the GI50 in assay [13], in assay [14] and in assay [15] was > 100 µM (inactive) each time.

Regarding `CCOC(OC1=CCCC1)C(C)[Se]c1ccccc1` (stereo not drawn), the GI50 was 19.1 µM (inactive) in assay [1]; 15.2 µM (inactive) in assay [2]; 18.7 µM (inactive) in assay [3]; 34.2 µM (inactive) in assay [4]; 14.6 µM (inactive) in assay [5]; 55.5 µM (inactive) in [6]. Moreover, the GI50 in assay [7] is 32.8 µM (inactive); in assay [8] it was 36.1 µM (inactive); in assay [9], 26.9 µM (inactive); in assay [10], 19.6 µM (inactive); in assay [11], > 100 µM (inactive); in assay [12], > 100 µM (inactive). The GI50 in assay [13] is 39.3 µM (inactive); in assay [14] it was > 100 µM (inactive); in [15], 39.3 µM (inactive).

For the molecule `O=C1c2ccccc2C2C1N2C(=O)C(F)(F)F` (stereo not drawn), the GI50 in [1] was > 100 µM (inactive); in assay [2], 25.9 µM (inactive); in assay [3] it was > 100 µM (inactive); in [4] it was > 100 µM (inactive); in assay [5], 24.7 µM (inactive); in assay [6], 44.2 µM (inactive). Moreover, the GI50 in assay [7], in assay [8], in assay [9], in assay [10], in assay [11] and in assay [12] was > 100 µM (inactive) in each case. The GI50 in assay [13], in assay [14] and in assay [15] was > 100 µM (inactive) in each case.

In the case of `CCCCCCCC[N+](C)(C)Cc1ccc(C[N+](C)(C)CCCCCCCC)cc1`, the GI50 is > 100 µM (inactive) in assay [1]; > 100 µM (inactive) in [2]; 1.76 µM (inactive) in assay [3]; > 100 µM (inactive) in assay [4]; 36.4 µM (inactive) in assay [5]; 28.4 µM (inactive) in [6]. The GI50 is 95.3 µM (inactive) in [7]; 34.5 µM (inactive) in [8]; 4.55 µM (inactive) in [9]; 28.6 µM (inactive) in [10]; 69.7 µM (inactive) in assay [11]; 24.6 µM (inactive) in assay [12]. In addition, the GI50 in [13] is 15.8 µM (inactive); in assay [14], 86.9 µM (inactive); in [15], > 100 µM (inactive).
